The test system of the series is PC9-GR cells expressing exogenous EI24 (9GR-O/E). Briefly: MTT assay in gefitinib-resistant PC9-GR cells over-expressing EI24. The format is cell-based, human. The following applies: 20 μM gefitinib, ectopic expression of EI24 in PC9-GR, FIG. 3. Here is the method:
A PC9 EGFR-mutant NSCLC cell line and its gefitinib-resistant derivative (PC9-GR) are described in a document by S. M. Kim et al. (Mol. Cancer Ther. vol. 11, pp. 2254-2264(2012)). All cells were cultured in an RPMI 1640 medium supplemented with 10% […]. A human EI24-overexpressing cell line and a control cell line were established by transfection with a plasmid including FLAG-tagged EI24 and the corresponding empty vector (pcDNA3.1), respectively. Human EI24-knockdown cell lines were established using a method described in a document by J. M. Choi et al. (Oncotarget, vol. 4, pp. 2383-2396(2013)). The shRNA sequences are as follows:
Cells were seeded at a density of 3×10^4 cells/well in a 96-well culture plate and incubated for 24 hours. The cells were exposed to drugs for 48 hours, and 0.4 mg/ml MTT was added until reaching a mid-height of each well. After incubating at 37° C. for 4 hours, formazan crystals in viable cells were solubilized with 100 μl of dimethyl sulfoxide (DMSO). The optical density of the formazan product was read at 590 nm on a microreader (Bio-Rad). All experiments were repeated three times.
In addition, the EI24 gene was over-expressed in a gefitinib-resistant cell line (PC9-GR) among PC9 cell lines and gefitinib was added thereto, and EI24 expression and apoptosis were measured through immunoblotting analysis and MTT assay, respectively. […]
(In general: Formazan colour is commonly taken as a measure of viable cells.)

With `COc1cc2ncnc(Nc3ccc(F)c(Cl)c3)c2cc1OCCCN1CCOCC1` [gefitinib], the cell viability result is “up to 18%”.

For the origin of these results see patent US10480032B2, “Use of EI24 gene” (UNIVERSITY-INDUSTRY FOUNDATION, YONSEI UNIVERSITY, priority 2016, dated 2019).
